# Measurements from the supplement of paper PMC10307832.
# What was measured:
# Assay in all cases: relative viability (nuclei count vs DMSO), 5 days (fraction); higher = more cells survive
# NCI-H1793 = system: NCI-H1793
# How it was run: (§1)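 Lung cancer cell lines were pin-tool dosed in 1536-well plates on the day after seeding, with either a lone drug or a fixed anchor-drug dose plus five library-drug doses (not always all listed) in √10 steps. Nuclei were counted on 4× images after 5 days. Relative viability is the ratio of treated-well to vehicle-well nuclei counts, with each value a median of duplicate plates.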
# SK-MES-1 = system: SK-MES-1
# How it was run: as §1
# NCI-H2347 = system: NCI-H2347
# How it was run: as §1
# NCI-H2009 = system: NCI-H2009
# How it was run: as §1
# COR-L23 = system: COR-L23
# How it was run: as §1
# NCI-H1755 = system: NCI-H1755
# How it was run: as §1
# NCI-H2228 = system: NCI-H2228
# How it was run: as §1
# NCI-H838 = system: NCI-H838
# How it was run: as §1
# NCI-H1355 = system: NCI-H1355
# How it was run: as §1
# NCI-H1993 = system: NCI-H1993
# How it was run: as §1
# NCI-H1395 = system: NCI-H1395
# How it was run: as §1
# HARA = system: HARA
# How it was run: as §1
# NCI-H1734 = system: NCI-H1734
# How it was run: as §1
# HOP-62 = system: HOP-62
# How it was run: as §1
# UMC-11 = system: UMC-11
# How it was run: as §1
# NCI-H647 = system: NCI-H647
# How it was run: as §1
# NCI-H1792 = system: NCI-H1792
# How it was run: as §1
# COR-L 105 = system: COR-L 105
# How it was run: as §1
# NCI-H2170 = system: NCI-H2170
# How it was run: as §1
# HCC-15 = system: HCC-15
# How it was run: as §1
structure (smiles),measurement,setting,value
O=c1cc(-c2cccc3c2Sc2ccccc2S3)oc(N2CCOCC2)c1 + CC1(C)CCC(c2ccc(Cl)cc2)=C(CN2CCN(c3ccc(C(=O)NS(=O)(=O)c4ccc(N[C@H](CCN5CCOCC5)CSc5ccccc5)c(S(=O)(=O)C(F)(F)F)c4)cc3)CC2)C1 [Navitoclax] (partner 0.5 µM),relative viability,NCI-H1793; first compound 0.08 µM,0.307
same,relative viability,NCI-H1793; first compound 0.253 µM,0.515
same,relative viability,NCI-H1793; first compound 0.8 µM,0.344
same,relative viability,NCI-H1793; first compound 2.53 µM,0.362
same,relative viability,NCI-H1793; first compound 8 µM,0.356
same,relative viability,SK-MES-1; first compound 0.08 µM,1.1
same,relative viability,SK-MES-1; first compound 0.253 µM,1.54
same,relative viability,SK-MES-1; first compound 0.8 µM,1.2
same,relative viability,SK-MES-1; first compound 2.53 µM,1.17
same,relative viability,SK-MES-1; first compound 8 µM,1.24
same,relative viability,NCI-H2347; first compound 0.08 µM,0.855
same,relative viability,NCI-H2347; first compound 0.253 µM,1.08
same,relative viability,NCI-H2347; first compound 0.8 µM,0.799
same,relative viability,NCI-H2347; first compound 2.53 µM,0.839
same,relative viability,NCI-H2347; first compound 8 µM,0.969
same,relative viability,NCI-H2009; first compound 0.08 µM,1.22
same,relative viability,NCI-H2009; first compound 0.253 µM,1.2
same,relative viability,NCI-H2009; first compound 0.8 µM,1.21
same,relative viability,NCI-H2009; first compound 2.53 µM,1.05
same,relative viability,NCI-H2009; first compound 8 µM,1.11
same,relative viability,COR-L23; first compound 0.08 µM,1.26
same,relative viability,COR-L23; first compound 0.253 µM,1.4
same,relative viability,COR-L23; first compound 0.8 µM,1.07
same,relative viability,COR-L23; first compound 2.53 µM,1.2
same,relative viability,COR-L23; first compound 8 µM,1.47
same,relative viability,NCI-H1755; first compound 0.08 µM,1.05
same,relative viability,NCI-H1755; first compound 0.253 µM,1.13
same,relative viability,NCI-H1755; first compound 0.8 µM,0.992
same,relative viability,NCI-H1755; first compound 2.53 µM,0.988
same,relative viability,NCI-H1755; first compound 8 µM,0.939
same,relative viability,NCI-H2228; first compound 0.08 µM,1.17
same,relative viability,NCI-H2228; first compound 0.253 µM,0.902
same,relative viability,NCI-H2228; first compound 0.8 µM,0.818
same,relative viability,NCI-H2228; first compound 2.53 µM,0.87
same,relative viability,NCI-H2228; first compound 8 µM,0.852
same,relative viability,NCI-H838; first compound 0.08 µM,1.11
same,relative viability,NCI-H838; first compound 0.253 µM,1.64
same,relative viability,NCI-H838; first compound 0.8 µM,0.944
same,relative viability,NCI-H838; first compound 2.53 µM,1.02
same,relative viability,NCI-H838; first compound 8 µM,1.09
same,relative viability,NCI-H1355; first compound 0.08 µM,0.982
same,relative viability,NCI-H1355; first compound 0.253 µM,1.06
same,relative viability,NCI-H1355; first compound 0.8 µM,0.847
same,relative viability,NCI-H1355; first compound 2.53 µM,0.942
same,relative viability,NCI-H1355; first compound 8 µM,0.685
same,relative viability,NCI-H1993; first compound 0.08 µM,1.09
same,relative viability,NCI-H1993; first compound 0.253 µM,0.989
same,relative viability,NCI-H1993; first compound 0.8 µM,0.768
same,relative viability,NCI-H1993; first compound 2.53 µM,0.824
same,relative viability,NCI-H1993; first compound 8 µM,0.871
same,relative viability,NCI-H1395; first compound 0.08 µM,1.14
same,relative viability,NCI-H1395; first compound 0.253 µM,1.1
same,relative viability,NCI-H1395; first compound 0.8 µM,1.12
same,relative viability,NCI-H1395; first compound 2.53 µM,1.13
same,relative viability,NCI-H1395; first compound 8 µM,1.03
same,relative viability,HARA; first compound 0.08 µM,1.16
same,relative viability,HARA; first compound 0.253 µM,1.36
same,relative viability,HARA; first compound 0.8 µM,1.01
same,relative viability,HARA; first compound 2.53 µM,1.11
same,relative viability,HARA; first compound 8 µM,1.2
same,relative viability,NCI-H1734; first compound 0.08 µM,0.845
same,relative viability,NCI-H1734; first compound 0.253 µM,1.13
same,relative viability,NCI-H1734; first compound 0.8 µM,1.06
same,relative viability,NCI-H1734; first compound 2.53 µM,0.818
same,relative viability,NCI-H1734; first compound 8 µM,1.02
same,relative viability,HOP-62; first compound 0.08 µM,1.09
same,relative viability,HOP-62; first compound 0.253 µM,1.43
same,relative viability,HOP-62; first compound 0.8 µM,1.21
same,relative viability,HOP-62; first compound 2.53 µM,0.902
same,relative viability,HOP-62; first compound 8 µM,1.28
same,relative viability,UMC-11; first compound 0.08 µM,0.326
same,relative viability,UMC-11; first compound 0.253 µM,0.319
same,relative viability,UMC-11; first compound 0.8 µM,0.32
same,relative viability,UMC-11; first compound 2.53 µM,0.304
same,relative viability,UMC-11; first compound 8 µM,0.353
same,relative viability,NCI-H647; first compound 0.08 µM,1.2
same,relative viability,NCI-H647; first compound 0.253 µM,1.15
same,relative viability,NCI-H647; first compound 0.8 µM,1.12
same,relative viability,NCI-H647; first compound 2.53 µM,1.04
same,relative viability,NCI-H647; first compound 8 µM,1.37
same,relative viability,NCI-H1792; first compound 0.253 µM,0.761
same,relative viability,NCI-H1792; first compound 0.8 µM,0.471
same,relative viability,NCI-H1792; first compound 2.53 µM,0.555
same,relative viability,NCI-H1792; first compound 8 µM,0.689
same,relative viability,COR-L 105; first compound 0.08 µM,0.649
same,relative viability,COR-L 105; first compound 0.253 µM,0.849
same,relative viability,COR-L 105; first compound 0.8 µM,0.678
same,relative viability,COR-L 105; first compound 2.53 µM,0.642
same,relative viability,COR-L 105; first compound 8 µM,0.993
same,relative viability,NCI-H2170; first compound 0.08 µM,0.693
same,relative viability,NCI-H2170; first compound 0.253 µM,0.749
same,relative viability,NCI-H2170; first compound 0.8 µM,0.642
same,relative viability,NCI-H2170; first compound 2.53 µM,0.55
same,relative viability,NCI-H2170; first compound 8 µM,0.519
same,relative viability,HCC-15; first compound 0.08 µM,0.68
same,relative viability,HCC-15; first compound 0.253 µM,0.866
same,relative viability,HCC-15; first compound 0.8 µM,0.615
same,relative viability,HCC-15; first compound 2.53 µM,0.66
same,relative viability,HCC-15; first compound 8 µM,0.705
